Assay results reported in patent US8859768B2, “Heteroaryls and uses thereof” (Millennium Pharmaceuticals, Inc., priority 2010, dated 2014).

molecular target: T1, Human VPS34 (Homo sapiens, UniProt Q8NEB9); test: Human VPS34 Enzyme Assay (Adapta TR-FRET); assay type: biochemical; conditions: compound at 1.111 μM; read-out: Average VPS34 % INH @ 1.111 μM
T1 construct: GST (N); host or cells: SF9 insect cells (baculovirus)
Procedure: VPS34 (accession number GB:BC033004) was cloned into pDEST20-Thombin as N-terminal GST tagged fusion proteins using the Gateway system (Invitrogen, catalog#11804-013). The sequences were verified before recombinant protein expression using the Baculovirus Expression System with Gateway® Technology.
For expression VPS34 was infected at 1MOI in SF9 cells and harvested 72 hours post infection.
For purification, VPS34 is purified by Glutathione Sepharose 4 Fast Flow (GE Healthcare #17-5132-03) followed by HiTrap Q (GE Healthcare #17-1153-01).
Human VPS34 Enzyme Assay Method
100 nL compounds in DMSO are added to wells of a 384 well microtitre plate (Greiner 780076). At room temperature: 5 ul VPS34 reaction buffer (Invitrogen Assay Buffer Q (diluted 1 in 5 with nanopure water) plus 2 mM DTT and 2 mM MnCl2) containing ATP (20 uM, Promega) and 200 uM PI-PS substrate (Invitrogen PV5122) is added followed immediately by 5 ul VPS34 reaction buffer (as above) containing VPS34 (5 nM, Millennium Protein Sciences Group) and the mixture is incubated with shaking at room temperature for 1 hour. Then 5 ul VPS34 stop-detect mix (as per Invitrogen Adapta Assay kit (PV5009) instructions (contains kinase quench buffer, TR-FRET buffer, Adapta Eu anti-ADP antibody and Alexa Fluor 647 ADP tracer)) is added to quench the reaction. The plates are then incubated for 30 minutes at room temperature with shaking and then read on a BMG PheraStar Plus reader.
3) VPS34 is assayed using Adapta™ Universal Kinase Assay Kit (Invitrogen).

T1 sequence (Q8NEB9 whole entry): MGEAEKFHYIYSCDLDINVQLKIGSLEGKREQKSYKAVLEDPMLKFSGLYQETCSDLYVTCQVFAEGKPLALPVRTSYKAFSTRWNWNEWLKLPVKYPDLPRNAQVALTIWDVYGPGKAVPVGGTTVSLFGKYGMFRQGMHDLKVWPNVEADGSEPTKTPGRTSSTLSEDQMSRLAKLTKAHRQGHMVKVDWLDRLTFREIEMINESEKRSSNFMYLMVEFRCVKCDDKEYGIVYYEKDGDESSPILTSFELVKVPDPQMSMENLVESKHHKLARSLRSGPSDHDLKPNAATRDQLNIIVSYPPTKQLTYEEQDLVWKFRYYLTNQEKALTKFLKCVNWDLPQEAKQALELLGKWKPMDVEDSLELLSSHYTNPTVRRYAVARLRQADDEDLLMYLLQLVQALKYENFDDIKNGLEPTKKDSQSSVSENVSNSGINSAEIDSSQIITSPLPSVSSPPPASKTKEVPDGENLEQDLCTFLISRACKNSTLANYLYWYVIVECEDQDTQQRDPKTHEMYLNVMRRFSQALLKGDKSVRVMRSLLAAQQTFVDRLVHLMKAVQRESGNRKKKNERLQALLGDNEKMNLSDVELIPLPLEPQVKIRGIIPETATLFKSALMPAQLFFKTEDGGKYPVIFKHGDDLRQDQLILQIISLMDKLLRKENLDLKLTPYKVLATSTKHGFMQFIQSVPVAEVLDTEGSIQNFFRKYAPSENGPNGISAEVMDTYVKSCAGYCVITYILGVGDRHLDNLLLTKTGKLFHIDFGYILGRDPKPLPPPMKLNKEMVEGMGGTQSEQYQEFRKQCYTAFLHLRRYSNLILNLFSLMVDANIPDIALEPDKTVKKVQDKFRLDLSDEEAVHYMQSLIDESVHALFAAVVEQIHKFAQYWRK

Row | inhibition at 1.111 µM | Structure (SMILES)
1 | 26% | Nc1cc(-c2nc(-c3nnc[nH]3)c(-c3ccccc3Cl)o2)ccn1 [Compound I-32, 4-[5-(2-chlorophenyl)-4-(4H-1,2,4-triazol-3-yl)-1,3-oxazol-2-yl]pyridin-2-amine]
2 | 128% | CC(=O)Nc1cc(-c2cc(C(=O)NCCOCCO)c(-c3ccccc3Cl)o2)c(C)cn1 [Compound I-34, 5-(2-acetamido-5-methylpyridin-4-yl)-2-(2-chlorophenyl)-N-[2-(2-hydroxyethoxy)ethyl]-3-furamide]
3 | 117% | COC(=O)Nc1cc(-c2nc(-c3nnc[nH]3)c(-c3ccccc3Cl)o2)c(C)cn1 [Compound I-35, methyl {4-[5-(2-chlorophenyl)-4-(4H-1,2,4-triazol-3-yl)-1,3-oxazol-2-yl]-5-methylpyridin-2-yl}carbamate]
4 | 129% | CC(=O)Nc1cc(-c2cc(-c3nnc[nH]3)c(-c3cc(CN4CCCC4)ccc3Cl)o2)c(C)cn1 [Compound I-36, N-(4-{5-[2-chloro-5-(pyrrolidin-1-ylmethyl)phenyl]-4-(4H-1,2,4-triazol-3-yl)-2-furyl}-5-methylpyridin-2-yl)acetamide]
5 | 117% | O=C(Cn1cccn1)Nc1cc(-c2nc(-c3nnc[nH]3)c(-c3ccccc3Cl)o2)ccn1 [Compound I-37, N-{4-[5-(2-chlorophenyl)-4-(4H-1,2,4-triazol-3-yl)-1,3-oxazol-2-yl]pyridin-2-yl}-2-(1H-pyrazol-1-yl)acetamide]
6 | 43% | CC(=O)Nc1cc(-c2nc(C(=O)NCc3cccs3)c(-c3ccccc3Cl)o2)c(C)cn1 [Compound I-38, 2-(2-acetamido-5-methylpyridin-4-yl)-5-(2-chlorophenyl)-N-(2-thienylmethyl)-1,3-oxazole-4-carboxamide]
7 | 98% | C=CCCC(=O)Nc1cc(-c2nc(-c3nnc[nH]3)c(-c3ccccc3Cl)o2)ccn1 [Compound I-43, N-{4-[5-(2-chlorophenyl)-4-(4H-1,2,4-triazol-3-yl)-1,3-oxazol-2-yl]pyridin-2-yl}pent-4-enamide]
8 | 150% | CC(=O)Nc1cc(-c2cc(C(=O)NCc3ccccn3)c(-c3ccccc3Cl)o2)c(C)cn1 [Compound I-44, 5-(2-acetamido-5-methylpyridin-4-yl)-2-(2-chlorophenyl)-N-(pyridin-2-ylmethyl)-3-furamide]
9 | 31% | CC(=O)Nc1cc(-c2nc(C(=O)NCc3cccnc3)c(-c3ccccc3Cl)o2)c(C)cn1 [Compound I-47, 2-(2-acetamido-5-methylpyridin-4-yl)-5-(2-chlorophenyl)-N-(pyridin-3-ylmethyl)-1,3-oxazole-4-carboxamide]
10 | 19% | Clc1ccccc1-c1oc(-c2ccncc2)nc1-c1nnc[nH]1 [Compound I-49, 4-[5-(2-chlorophenyl)-4-(4H-1,2,4-triazol-3-yl)-1,3-oxazol-2-yl]pyridine]
11 | 117% | CNC(=O)c1nc(-c2cc(NC(C)=O)ncc2C)oc1-c1ccccc1Cl [Compound I-52, 2-(2-acetamido-5-methylpyridin-4-yl)-5-(2-chlorophenyl)-N-methyl-1,3-oxazole-4-carboxamide]
12 | 152% | CNC(=O)c1cc(-c2cc(NC(C)=O)ncc2C)oc1-c1ccccc1Cl [Compound I-54, 5-(2-acetamido-5-methylpyridin-4-yl)-2-(2-chlorophenyl)-N-methyl-3-furamide]
13 | 20% | CC(=O)Nc1cc(-c2nc(C(=O)NCc3ccccc3)c(-c3ccccc3Cl)o2)c(C)cn1 [Compound I-55, 2-(2-acetamido-5-methylpyridin-4-yl)-N-benzyl-5-(2-chlorophenyl)-1,3-oxazole-4-carboxamide]
14 | 139% | CC(=O)Nc1cc(-c2cc(C(=O)O)c(-c3ccccc3Cl)o2)c(C)cn1 [Compound I-56, 5-(2-acetamido-5-methylpyridin-4-yl)-2-(2-chlorophenyl)-3-furoic acid]

The next lines start with the molecule.

Row | Structure (SMILES) | inhibition at 1.111 µM
15 | CC(=O)Nc1cc(-c2nc(C(=O)Nc3cnccn3)c(-c3ccccc3Cl)o2)c(C)cn1 [Compound I-31, 2-(2-acetamido-5-methylpyridin-4-yl)-5-(2-chlorophenyl)-N-(pyrazin-2-yl)-1,3-oxazole-4-carboxamide] | 56%
16 | CC(=O)Nc1cc(-c2nc(-c3ccccc3Cl)c(-c3ncco3)o2)c(C)cn1 [Compound I-33, N-{4-[4′-(2-chlorophenyl)-2,5′-bi-1,3-oxazol-2′-yl]-5-methylpyridin-2-yl}acetamide] | 102%
17 | CC(=O)Nc1cc(-c2nc(-c3ccccc3Cl)c(-c3nnc[nH]3)o2)c(C)cn1 [Compound I-39, N-{4-[4-(2-chlorophenyl)-5-(4H-1,2,4-triazol-3-yl)-1,3-oxazol-2-yl]-5-methylpyridin-2-yl}acetamide] | 125%
18 | CC(=O)Nc1cc(-c2nc(-c3cc(CN(C)C)ccc3Cl)c(-c3nnc[nH]3)o2)c(C)cn1 [Compound I-40, N-{4-[4-{2-chloro-5-[(dimethylamino)methyl]phenyl}-5-(4H-1,2,4-triazol-3-yl)-1,3-oxazol-2-yl]-5-methylpyridin-2-yl}acetamide] | 115%
19 | CC(=O)Nc1cc(-c2cc(C(=O)NCCc3cn4ccccc4n3)c(-c3ccccc3Cl)o2)c(C)cn1 [Compound I-41, 5-(2-acetamido-5-methylpyridin-4-yl)-2-(2-chlorophenyl)-N-[2-(imidazo[1,2-a]pyridin-2-yl)ethyl]-3-furamide] | 90%
20 | CC(=O)Nc1cc(-c2cc(C(=O)NCc3cccs3)c(-c3ccccc3Cl)o2)c(C)cn1 [Compound I-42, 5-(2-acetamido-5-methylpyridin-4-yl)-2-(2-chlorophenyl)-N-(2-thienylmethyl)-3-furamide] | 117%
21 | COCCC(=O)Nc1cc(-c2nc(-c3nnc[nH]3)c(-c3ccccc3Cl)o2)ccn1 [Compound I-45, N-{4-[5-(2-chlorophenyl)-4-(4H-1,2,4-triazol-3-yl)-1,3-oxazol-2-yl]pyridin-2-yl}-3-methoxypropanamide] | 104%
22 | CON(C)C(=O)c1cc(-c2cc(NC(C)=O)ncc2C)oc1-c1ccccc1Cl [Compound I-46, 5-(2-acetamido-5-methylpyridin-4-yl)-2-(2-chlorophenyl)-N-methoxy-N-methyl-3-furamide] | 89%
23 | CC(=O)Nc1cc(-c2cc(-c3cc[nH]n3)c(-c3ccccc3Cl)o2)c(C)cn1 [Compound I-48, N-{4-[5-(2-chlorophenyl)-4-(1H-pyrazol-3-yl)-2-furyl]-5-methylpyridin-2-yl}acetamide] | 130%
24 | CC(=O)Nc1cc(-c2nc(N3CCCS3(=O)=O)c(-c3nnc[nH]3)o2)c(C)cn1 [Compound I-50, N-{4-[4-(1,1-dioxidoisothiazolidin-2-yl)-5-(4H-1,2,4-triazol-3-yl)-1,3-oxazol-2-yl]-5-methylpyridin-2-yl}acetamide] | 115%
25 | CC(=O)Nc1cc(-c2nc(-c3cc(CN4CCCC4)ccc3Cl)c(C(=O)O)o2)c(C)cn1 [Compound I-51, 2-(2-acetamido-5-methylpyridin-4-yl)-4-[2-chloro-5-(pyrrolidin-1-ylmethyl)phenyl]-1,3-oxazole-5-carboxylic acid] | 131%
26 | CC(=O)Nc1cc(-c2cc(C(=O)NCc3ccccc3)c(-c3ccccc3Cl)o2)c(C)cn1 [Compound I-53, 5-(2-acetamido-5-methylpyridin-4-yl)-N-benzyl-2-(2-chlorophenyl)-3-furamide] | 104%
